Values quoted from earlier work, collected in PMC12689647, “Evaluation of bromadiolone combined with ciprofloxacin, vitamin D, aspirin, and cinnamon as an apoptosis-mediated rodenticide strategy” (Scientific Reports, 2025).

Assays:
CYP1A = details: co-administration, many animal species; cited from earlier work
Albino rats = details: repeated doses (1 g/kg); cited from earlier work
G361 HMM cells = details: cited from earlier work

## O=C(O)c1cn(C2CC2)c2cc(N3CCNCC3)c(F)cc2c1=O [Ciprofloxacin]
CYP1A
  effect on CYP1A activity in hepatic microsomes: inhibits CYP1A activity

## CC(=O)Oc1ccccc1C(=O)O [acetylsalicylic acid, Acetylsalicylic acid]
Albino rats
  toxic effects of repeated doses: varying degrees of gastroenteritis, hepatitis, nephritis, pulmonary edema

## O=c1ccc2cc(O)c(O)cc2o1 [esculetin]
G361 HMM cells
  effect on apoptotic signaling molecules: activated apoptotic signaling molecules such as caspase-3 and PARP
